# From US20230029496A1, “AMINO ACID ALTERNATIVE CURING SYSTEM” (THE TEXAS A&M UNIVERSITY SYSTEM, priority 2019, published 2023)
# “And” between values parts separate entries of the source, which are not always exact repeats. Equal values may be shown once. Marks after values point to notes of the source that are not given here.
# Tests used:
# [1] = test system: Nitric Oxide Synthase (NOS) system; assay: Residual nitrite in plastic casing test tube ground pork loin sausages (Example 10); details: for Nitrite Pellet / Nitrite Supernatant: cooked
# Procedure: The desired cured color could not initially be generated in a variety of processed meat products in a pilot plant setting. […] Pork loins (N=2) procured from a local meat distributor (Mar. 18, 2019) were used. Eight pounds of pork loins were ground (½″ then ¼″ plate) and weighed out in one pound portions. Plastic waterproof casings (2″ diameter) were clipped at one end. One pound of ground pork loin was placed in the casing and two pounds of brine (L-arginine concentration 7498 ppm) were added and the open end of the casing clipped. Based on laboratory test tube studies, meat samples would absorb 20-25% of the solution which equates to absorption of approximately 1500 ppm of L-arginine. Each plastic casing contained the same proportion of meat and brine as conducted during previous laboratory experiments (Table 12). A control was manufactured by substituting distilled water for the L-arginine brine.
# After thermal processing the plastic casing test tubes were cut open and emptied into beakers, then separated into residue (meat particles) and supernatant (liquid) via paper filtration into 50 mL conical tubes for collection and subsequent analysis for residual nitrite (supernatant) and cured pigment formation/nitrosylation (meat residue).
# Nitrosylation and residual nitrite analyses was performed under reduced light to avoid loss of pigmentation. L-arginine treated test tube pork sausage averaged 53.12 to 72.30 ppm of residual nitrite in the cooked meat pellet with percent nitrosylation ranging from 33 to 60 percent (Table 13). The brine was formulated to deliver 1500 ppm ingoing L-arginine at 25% absorption into the meat after two hours of immersion in the brine solution.
# [2] = test system: NOS system; assay: Residual nitrite in test tube pork loin sausages (Example 11)
# Text: Pork loins from a local meat distributor were procured on Mar. 18, 2019 and tested four weeks later on Apr. 18, 2019. A total of nine pounds of pork loins were split into thirds and ground through kidney, ½″, and ¼″ plates to make a restructured ham sausages formulated (Table 14) to contain either 1000 or 5000 ppm L-arginine which were stuffed in 2″ plastic casings and thermally processed. Three pounds of each grind size (9 pound batch) were mixed with high (5000 ppm), low (1000 ppm), or control (0 ppm) concentrations of brine at 25% addition using a Kitchen aid mixer. It was decided to lower the concentration of the L-arginine from 1500 ppm (Test 3) to 1000 ppm (Test 4) to verify that this concentration can generate acceptable levels of NO to develop cured color and residual nitrite for antioxidant and antimicrobial properties. Control and treatment met batches were stuffed in plastic casings in triplicate for each high, low, and control concentrations in one pound portions. […] The samples were tested for residual nitrite and nitroso-hemochromagen pigment (Table 14) one day after thermal processing cooking (April 19th to April 20th), then eight days after thermal processing on April 26th to determine any cure color fading and residual nitrite.
# [3] = test system: Nitric Oxide Synthase (NOS) system; assay: Residual nitrite in pre-rigor and post-rigor pork semimembranosus muscle immersed in L-arginine (Example 13); assay type: biochemical
# Procedure: Pre-rigor pork semimembranosus muscle samples were collected from four pre-rigor pork carcasses (n=4) harvested at the Rosenthal Meat Science and Technology Center at Texas A&M University at three separate times over a three day period (N=12). Post-rigor pork semimembranosus muscle samples were collected from the same carcasses eighteen hours after harvesting to ensure the full onset and completion of rigor (N=12). Muscle samples were treated with the same five concentrations of L-arginine and water as the control treatment. Samples were either heated (water bath increasing from room temperature ([…]) to 62° C. for 60 min) or left raw/fresh (uncooked). The overall experiment was designed as a 6 (5 L-arginine concentrations and a control) by 4 (pork carcasses) by 2 (heating treatment (raw and cooked)) factorial replicated 3 times (collection) (N=144) for both pre-rigor and post-rigor muscle types.
# Solutions were prepared by Wu's specifications to stabilize the muscle samples for enclosed reactions within 50 mL conical tubes. […] The NaCl was used to suspend and stabilize any reaction and the NaE was used to accelerate the cure reaction. The L-arginine (L-arginine monohydrochloride, Ajinomoto Inc., Raleigh, N.C.) concentrations were prepared separately for administration as a treatment once the five grams of meat were added to the reaction tubes at dilutions of 0 mM, 2 mM, 4 mM, 8 mM 16 mM, and 32 mM.
# Residual nitrite was determine using the modified AOAC Official Method 973.31 (Nitrite Analysis in Cured Meats Procedure) and was verified by Wu with sample (plasma or serum) preparation for amino acid analysis by HPLC and determination of nitrite (UV/VIS Spectrophotometric Method). This method was used to best determine any residual nitrite found in samples to compensate for both pre-rigor and post rigor effects on detecting residual nitrite. All samples were tested one week later after being held in a −30° C. freezer then thawed in a 0° C. cooler.
# [4] = pH after immersion, pre-rigor pork semimembranosus muscle (first study); assay type: physicochemical
# [5] = 2 mM L-arginine, cooked supernatant
# [6] = 2 mM L-arginine, raw supernatant, stored one week at -30° C.
# [7] = 4 mM L-arginine, cooked supernatant
# [8] = 4 mM L-arginine, raw supernatant, stored one week at -30° C.
# [9] = 8 mM L-arginine, cooked supernatant
# [10] = 8 mM L-arginine, raw supernatant, stored one week at -30° C.
# [11] = 16 mM L-arginine, cooked pellet
# [12] = 16 mM L-arginine, cooked supernatant
# [13] = 16 mM L-arginine, raw supernatant, stored one week at -30° C.
# [14] = 32 mM L-arginine, cooked pellet
# [15] = 32 mM L-arginine, cooked supernatant
# [16] = 32 mM L-arginine, raw supernatant, stored one week at -30° C.
smiles,measurement,setting,value
N=C(N)NCCC[C@H](N)C(=O)O [L-arginine],Nitrite Pellet,[1]; 10% L-arginine brine (formulated for 1500 ppm L-arginine),72.31^a ppm
same,Nitrite Supernatant,[1]; 10% L-arginine brine,33.48^a ppm
same,Nitrite Pellet,[1]; 15% L-arginine brine (formulated for 1500 ppm L-arginine),53.12^ab ppm
same,Nitrite Supernatant,[1]; 15% L-arginine brine,36.50^a ppm
same,Nitrite Pellet,[1]; 20% L-arginine brine (formulated for 1500 ppm L-arginine),59.52^ab ppm
same,Nitrite Supernatant,[1]; 20% L-arginine brine,40.80^a ppm
same,Nitrite Pellet,[1]; 25% L-arginine brine (formulated for 1500 ppm L-arginine),59.63^ab ppm
same,Nitrite Supernatant,[1]; 25% L-arginine brine,35.34^a ppm
same,residual nitrite in the cooked meat pellet,[1]; range of averages over brine additions 10-25%,53.12 to 72.30 ppm
same,Nitrite,"[2]; High (5000 ppm) L-arginine, 8 days post thermal processing, refrigerated vacuum packaged",48.12^a ppm
same,Nitrite,"[2]; High (5000 ppm) L-arginine, one day after thermal processing",66.73^a ppm
same,Nitrite,"[2]; Low (1000 ppm) L-arginine, 8 days post thermal processing, refrigerated vacuum packaged",37.78^a ppm
same,Nitrite,"[2]; Low (1000 ppm) L-arginine, one day after thermal processing",79.16^a ppm
same,residual nitrite decrease,[2]; during 8 days of refrigerated vacuum packaged storage,20-30 ppm
same,Residual Post rigor Nitrite,"[3]; 2 mM L-arginine, cooked pellet",19.36^b ppm
same,Residual Pre-rigor Nitrite,"[3]; 2 mM L-arginine, cooked pellet",22.87^a ppm
same,Residual Post rigor Nitrite,[3]; [5],61.12 ppm and 61.12^a ppm
same,Residual Pre-rigor Nitrite,[3]; [5],50.72 ppm and 50.72^a ppm
same,Residual Post rigor Nitrite,[3]; [6],9.42^a ppm
same,Residual Pre-rigor Nitrite,[3]; [6],15.26^a ppm
same,Residual Post rigor Nitrite,"[3]; 4 mM L-arginine, cooked pellet",23.72 ppm and 23.72^ab ppm
same,Residual Pre-rigor Nitrite,"[3]; 4 mM L-arginine, cooked pellet",22.64^a ppm
same,Residual Post rigor Nitrite,[3]; [7],61.93 ppm and 61.93^a ppm
same,Residual Pre-rigor Nitrite,[3]; [7],47.72 ppm and 47.72^ab ppm
same,Residual Post rigor Nitrite,[3]; [8],14.50^a ppm
same,Residual Pre-rigor Nitrite,[3]; [8],34.93^a ppm
same,Residual Post rigor Nitrite,"[3]; 8 mM L-arginine, cooked pellet",22.06 ppm and 22.06^ab ppm
same,Residual Pre-rigor Nitrite,"[3]; 8 mM L-arginine, cooked pellet",19.70^a ppm
same,Residual Post rigor Nitrite,[3]; [9],52.69 ppm and 52.69^ab ppm
same,Residual Pre-rigor Nitrite,[3]; [9],38.63 ppm and 38.63^ab ppm
same,Residual Post rigor Nitrite,[3]; [10],21.83^a ppm
same,Residual Pre-rigor Nitrite,[3]; [10],44.58^a ppm
same,Residual Post rigor Nitrite,[3]; [11],22.15 ppm and 22.15^ab ppm
same,Residual Pre-rigor Nitrite,[3]; [11],31.94^a ppm
same,Residual Post rigor Nitrite,[3]; [12],53.74 ppm and 53.74^a ppm
same,Residual Pre-rigor Nitrite,[3]; [12],24.62 ppm and 24.62^ab ppm
same,Residual Post rigor Nitrite,[3]; [13],23.54^a ppm
same,Residual Pre-rigor Nitrite,[3]; [13],11.92^a ppm
same,Residual Post rigor Nitrite,[3]; [14],32.87 ppm and 32.87^a ppm
same,Residual Pre-rigor Nitrite,[3]; [14],40.14 ppm and 40.14^a ppm
same,Residual Post rigor Nitrite,[3]; [15],52.90 ppm and 52.90^ab ppm
same,Residual Pre-rigor Nitrite,[3]; [15],20.08 ppm and 20.08^ab ppm
same,Residual Post rigor Nitrite,[3]; [16],16.51^a ppm
same,Residual Pre-rigor Nitrite,[3]; [16],22.09^a ppm
same,Residual Nitrite,"[3]; pre-rigor raw supernatant, range over all concentrations of L-arginine",11.92-44.58 ppm
same,residual nitrite levels,"[3]; raw post rigor supernatant, range over all concentrations of L-arginine",9.06-23.54 ppm
same,pH after 2 hours of sample immersion,"[4]; 2 mM L-arginine, cooked",5.88^a
same,pH after 2 hours of sample immersion,"[4]; 2 mM L-arginine, raw",5.84^a
same,pH after 2 hours of sample immersion,"[4]; 4 mM L-arginine, cooked",5.86^a
same,pH after 2 hours of sample immersion,"[4]; 4 mM L-arginine, raw",5.85^a
same,pH after 2 hours of sample immersion,"[4]; 8 mM L-arginine, cooked",5.87^a
same,pH after 2 hours of sample immersion,"[4]; 8 mM L-arginine, raw",5.83^a
same,pH after 2 hours of sample immersion,"[4]; 16 mM L-arginine, cooked",5.94^a
same,pH after 2 hours of sample immersion,"[4]; 16 mM L-arginine, raw",5.88^a
same,pH after 2 hours of sample immersion,"[4]; 32 mM L-arginine, cooked",6.05^a
same,pH after 2 hours of sample immersion,"[4]; 32 mM L-arginine, raw",6.01^a
same,sample pH after the immersion phase,"[4]; range over raw and cooked, 0-32 mM",5.83-6.05
